In brackets after ≈: the same amount, converted by molar mass.
Tests used:
B. cereus (Bacto) = experiment: In vitro antibacterial activity, agar dilution MIC; assay type: cell-based; details: Bacillus cereus, 18 h, without sheep blood, read-out: Minimum Inhibitory Concentration
Method: (§1) The in vitro antibacterial activity of 31F508α1 and α2 is determined against a spectrum of gram-positive and gram-negative bacteria by a standard agar dilution method. Mueller-Hinton agar with and without 5% sheep blood and two-fold decreasing concentrations of either 31F508α1 or α2 are poured into petri dishes. The agar surfaces are inoculated with 1 to 5×10^4 colony forming units of bacteria by means of the Steers replicating device. The lowest concentration of antibiotic that inhibits growth of a bacterial strain after 18 hours incubation is recorded as the minimal inhibitory concentration for that strain. The results are given in Table V with sheeps blood added to the agar.

CNS (4615) = experiment: In vitro antibacterial activity, agar dilution MIC; assay type: cell-based; details: 18 h, read-out: Minimum Inhibitory Concentration, CNS (4615), without sheep blood
Method: as §1

CNS (ID-3120) = experiment: In vitro antibacterial activity, agar dilution MIC; assay type: cell-based; details: 18 h, read-out: Minimum Inhibitory Concentration, CNS (ID-3120), without sheep blood
Method: as §1

CNS (ID-3941) = experiment: In vitro antibacterial activity, agar dilution MIC; assay type: cell-based; details: 18 h, read-out: Minimum Inhibitory Concentration, CNS (ID-3941), without sheep blood
Method: as §1

E. Avium (ID-3953) = experiment: In vitro antibacterial activity, agar dilution MIC; assay type: cell-based; details: Enterococcus avium, 18 h, without sheep blood, read-out: Minimum Inhibitory Concentration
Method: as §1

E. coli (ATCC 25922) = experiment: In vitro antibacterial activity, agar dilution MIC; assay type: cell-based; details: Escherichia coli, ATCC25922, without sheep blood, 18 hours, read-out: Minimum Inhibitory Concentration
Method: as §1

E. coli (J2175) = experiment: In vitro antibacterial activity, agar dilution MIC; assay type: cell-based; details: Escherichia coli, 18 h, without sheep blood, read-out: Minimum Inhibitory Concentration
Method: as §1

E. coli (J2445) = experiment: In vitro antibacterial activity, agar dilution MIC; assay type: cell-based; details: Escherichia coli, 18 h, without sheep blood, read-out: Minimum Inhibitory Concentration
Method: as §1

E. faecalis (12201) = experiment: In vitro antibacterial activity, agar dilution MIC; assay type: cell-based; details: Enterococcus faecalis, 18 h, without sheep blood, read-out: Minimum Inhibitory Concentration
Method: as §1

E. faecalis (ATCC 29212) = experiment: In vitro antibacterial activity, agar dilution MIC; assay type: cell-based; details: Enterococcus faecalis, ATCC29212, 18 h, without sheep blood, read-out: Minimum Inhibitory Concentration
Method: as §1

E. faecalis (ID-1829) = experiment: In vitro antibacterial activity, agar dilution MIC; assay type: cell-based; details: Enterococcus faecalis, 18 h, without sheep blood, read-out: Minimum Inhibitory Concentration
Method: as §1

E. faecalis (ID-2131) = experiment: In vitro antibacterial activity, agar dilution MIC; assay type: cell-based; details: Enterococcus faecalis, 18 h, without sheep blood, read-out: Minimum Inhibitory Concentration
Method: as §1

E. faecalis (ID-4168) = experiment: In vitro antibacterial activity, agar dilution MIC; assay type: cell-based; details: Enterococcus faecalis, 18 h, without sheep blood, read-out: Minimum Inhibitory Concentration
Method: as §1

E. faecium (12202) = experiment: In vitro antibacterial activity, agar dilution MIC; assay type: cell-based; details: Enterococcus faecium, 18 h, without sheep blood, read-out: Minimum Inhibitory Concentration
Method: as §1

E. faecium (ID-3301) = experiment: In vitro antibacterial activity, agar dilution MIC; assay type: cell-based; details: Enterococcus faecium, 18 h, without sheep blood, read-out: Minimum Inhibitory Concentration
Method: as §1

E. faecium (ID-4133) = experiment: In vitro antibacterial activity, agar dilution MIC; assay type: cell-based; details: Enterococcus faecium, without sheep blood, 18 hours, read-out: Minimum Inhibitory Concentration
Method: as §1

M. morganii (VGH 84-11) = experiment: In vitro antibacterial activity, agar dilution MIC; assay type: cell-based; details: Morganella morganii, 18 h, without sheep blood, read-out: Minimum Inhibitory Concentration
Method: as §1

[1] = test system: P. aeruginosa (ATCC 27853); experiment: In vitro antibacterial activity, agar dilution MIC; assay type: cell-based; details: Pseudomonas aeruginosa, ATCC27853, without sheep blood, 18 hours, read-out: Minimum Inhibitory Concentration
Method: as §1

S. Pyogenes (ID-3187) = experiment: In vitro antibacterial activity, agar dilution MIC; assay type: cell-based; details: Streptococcus pyogenes, 18 h, without sheep blood, read-out: Minimum Inhibitory Concentration
Method: as §1

S. agalactiae (ID-4079) = experiment: In vitro antibacterial activity, agar dilution MIC; assay type: cell-based; details: Streptococcus agalactiae, 18 h, read-out: Minimum Inhibitory Concentration, S. acralactiae (ID-4079), without sheep blood
Method: as §1

S. lutea (ATCC 9341) = experiment: In vitro antibacterial activity, agar dilution MIC; assay type: cell-based; details: Micrococcus luteus, ATCC9341, without sheep blood, 18 hours, read-out: Minimum Inhibitory Concentration
Method: as §1

[2] = test system: Staphylococcus aureus (ATCC 29213); experiment: In vitro antibacterial activity, agar dilution MIC; assay type: cell-based; details: ATCC29213, 18 h, Staphylococcus aureus (ATCC 29213-), without sheep blood, read-out: Minimum Inhibitory Concentration
Method: as §1

[3] = test system: Staphylococcus aureus (ID-2371); experiment: In vitro antibacterial activity, agar dilution MIC; assay type: cell-based; details: 18 h, without sheep blood, read-out: Minimum Inhibitory Concentration
Method: as §1

[4] = test system: Staphylococcus aureus (ID-2727); experiment: In vitro antibacterial activity, agar dilution MIC; assay type: cell-based; details: 18 h, without sheep blood, read-out: Minimum Inhibitory Concentration
Method: as §1

[5] = test system: Staphylococcus aureus (ID-3105); experiment: In vitro antibacterial activity, agar dilution MIC; assay type: cell-based; details: 18 h, without sheep blood, read-out: Minimum Inhibitory Concentration
Method: as §1

[6] = test system: Staphylococcus aureus (ID-4379); experiment: In vitro antibacterial activity, agar dilution MIC; assay type: cell-based; details: 18 h, without sheep blood, read-out: Minimum Inhibitory Concentration
Method: as §1

[7] = test system: Staphylococcus aureus (MEMC-89-4); experiment: In vitro antibacterial activity, agar dilution MIC; assay type: cell-based; details: 18 h, without sheep blood, read-out: Minimum Inhibitory Concentration
Method: as §1

[8] = test system: Staphylococcus aureus (SMITH); experiment: In vitro antibacterial activity, agar dilution MIC; assay type: cell-based; details: 18 h, without sheep blood, read-out: Minimum Inhibitory Concentration
Method: as §1

[9] = test system: Staphylococcus haemolyticus (ID-4061); experiment: In vitro antibacterial activity, agar dilution MIC; assay type: cell-based; details: 18 h, without sheep blood, read-out: Minimum Inhibitory Concentration
Method: as §1

[10] = test system: Streptococcus pneumoniae (ID-4444); experiment: In vitro antibacterial activity, agar dilution MIC; assay type: cell-based; details: 18 h, without sheep blood, read-out: Minimum Inhibitory Concentration
Method: as §1

Escherichia coli#311 = experiment: In vivo antibacterial activity in intraperitoneally infected mice; parameters: species or system female CD-1 mice; details: one half hour after infection
Method: The in vivo antibacterial activity of antibiotic 31F508α2 is established by infecting female CD-1 mice from Charles River Laboratories,weighing 20+-- 2 g each, intraperitoneally of sufficient bacterial cells suspended in either broth or 5% hog gastric mucin to kill non-treated controls within 24-48 hours. Two-fold serially diluted doses of the antibacterial agent contained in phosphate buffered saline (PBS, pH 7.4, 0.01M) are administered intravenously (0.2 ml) or contained in 0.2% aqueous agar, subcutaneously (0.5 ml) or orally (0.5 ml) one half hour after infection. In each test, five mice are treated per dose level.

[11] = Stability (conversion in neutral or basic solution; decomposition on drying); assay type: physicochemical; details: listed as α2
Method: The crude product is then separated into the α1, α2, β1 and β2 components and further purified by high performance liquid chromatography on a reverse-phase column equilibrated with 0.1% trifluoroacetic acid in water followed by slution with an acetonitrile gradient to 10%. Active fractions are pooled and freeze dried. Freeze dried fractions are dissolved in 0.01M hydrochloric acid, applied to a reverse phase column and eluted with an acetonitrile gradient to 10% resolves the two components α1 and α2. […] Beta is the quinone form of α1 or α2 having lost hydrogens from the oxygens connected to carbon10 and 13.
The freeze dried material is suspended in methanol and the insolubles removed by filtration. The soluble material is concentrated to dryness and the concentrate dissolved in 1% trifluoroacetic acid in water. Insolubles are removed by centrifugation. The soluble material is loaded onto a preparative reverse phase C18 column equilibrated with 0.1% trifluoroacetic acid in water. The column is eluted with an acetonitrile gradient to 10%. Active fractions containing the alpha component are pooled and freeze dried. Active fractions containing the beta component are adjusted to pH 8 with solid ammonium bicarbonate and extracted with methylene chloride. The beta component is stored in methylene chloride as drying leads to rapid decomposition. […]

With COc1c(C)c(O)c2c(c1O)C1COC3C4CC5C(C(C2N2CCOC52)N13)N4C (stereo not drawn) [31F508α2] the MIC (B. cereus (Bacto)) was 250 ng/mL (≈ 623 nM), the MIC (CNS (4615)) was 2 ng/mL (≈ 4.98 nM) and the MIC (CNS (ID-3120)) was 2 ng/mL (≈ 4.98 nM). The MIC (CNS (ID-3941)) was 2 ng/mL (≈ 4.98 nM), the MIC (E. Avium (ID-3953)) was 30 ng/mL (≈ 74.7 nM) and the MIC (E. coli (ATCC 25922)) was 500 ng/mL (≈ 1250 nM). For the same molecule, the MIC (E. coli (J2175)) was 1000 ng/mL (≈ 2490 nM), the MIC (E. coli (J2445)) was 4 ng/mL (≈ 9.96 nM) and the MIC (E. faecalis (12201)) was 15 ng/mL (≈ 37.4 nM). The MIC (E. faecalis (ATCC 29212)) was 60 ng/mL (≈ 149 nM), the MIC (E. faecalis (ID-1829)) was 60 ng/mL (≈ 149 nM) and the MIC (E. faecalis (ID-2131)) was 250 ng/mL (≈ 623 nM). It also gave an MIC (E. faecalis (ID-4168)) of 120 ng/mL (≈ 299 nM), an MIC (E. faecium (12202)) of 15 ng/mL (≈ 37.4 nM) and an MIC (E. faecium (ID-3301)) of 120 ng/mL (≈ 299 nM). The MIC (E. faecium (ID-4133)) was 2 ng/mL (≈ 4.98 nM), the MIC (M. morganii (VGH 84-11)) was 500 ng/mL (≈ 1250 nM) and the MIC [1] was 2000 ng/mL (≈ 4980 nM). It also gave an MIC (S. Pyogenes (ID-3187)) of 2 ng/mL (≈ 4.98 nM), an MIC (S. agalactiae (ID-4079)) of 4 ng/mL (≈ 9.96 nM) and an MIC (S. lutea (ATCC 9341)) of 2 ng/mL (≈ 4.98 nM). The MIC [2] was 8 ng/mL (≈ 19.9 nM), the MIC [3] was 4 ng/mL (≈ 9.96 nM) and the MIC [4] was 2 ng/mL (≈ 4.98 nM). The MIC [5] was 4 ng/mL (≈ 9.96 nM), the MIC [6] was 4 ng/mL (≈ 9.96 nM) and the MIC [7] was 4 ng/mL (≈ 9.96 nM). For the same molecule, the MIC [8] was 2 ng/mL (≈ 4.98 nM), the MIC [9] was 2 ng/mL (≈ 4.98 nM) and the MIC [10] was 2 ng/mL (≈ 4.98 nM). The “Survival Ratios” value (Escherichia coli#311; SIV (intravenous), 0.25 Mg/Kg) was 0/5, the “Survival Ratios” value (Escherichia coli#311; SIV (intravenous), 0.5 Mg/Kg) was 0/5 and the “Survival Ratios” value (Escherichia coli#311; SIV (intravenous), 1 Mg/Kg) was 0/5. The “Survival Ratios” value (Escherichia coli#311; SIV (intravenous), 2 Mg/Kg) was 0/5, the “Survival Ratios” value (Escherichia coli#311; SIV (intravenous), 4 Mg/Kg) was 0/5 and the “Survival Ratios” value (Escherichia coli#311; SOD (oral), 0.25 Mg/Kg) was 0/5. For the same molecule, the “Survival Ratios” value (Escherichia coli#311; SOD (oral), 0.5 Mg/Kg) was 0/5, the “Survival Ratios” value (Escherichia coli#311; SOD (oral), 1 Mg/Kg) was 0/5 and the “Survival Ratios” value (Escherichia coli#311; SOD (oral), 2 Mg/Kg) was 0/5. The “Survival Ratios” value (Escherichia coli#311; SOD (oral), 4 Mg/Kg) was 0/5, the “Survival Ratios” value (Escherichia coli#311; SOD (oral), 8 Mg/Kg) was 0/5 and the “Survival Ratios” value (Escherichia coli#311; SSC (subcutaneous), 0.25 Mg/Kg) was 0/5. For the same molecule, the “Survival Ratios” value (Escherichia coli#311; SSC (subcutaneous), 0.5 Mg/Kg) was 0/5, the “Survival Ratios” value (Escherichia coli#311; SSC (subcutaneous), 1 Mg/Kg) was 0/5 and the “Survival Ratios” value (Escherichia coli#311; SSC (subcutaneous), 2 Mg/Kg) was 0/5. The “Survival Ratios” value (Escherichia coli#311; SSC (subcutaneous), 4 Mg/Kg) was 0/5, the “Survival Ratios” value (Escherichia coli#311; SSC (subcutaneous), 8 Mg/Kg) was 0/5 and the “Conversion to the beta (quinone) form” value [11] was “converts to the beta form”.
